According to ChEMBL document CHEMBL4825690, “Synthesis and biological evaluation of chalcone-polyamine conjugates as novel vectorized agents in colorectal and prostate cancer chemotherapy” (Eur J Med Chem, 2021):
pIC50: −log10 of the molar value. Calls of active or inactive are those of the source. The calls are words filed in the database; no cut-off is given here.

Experiments:
DU-145 [1] = test: Induction of apoptosis in human DU-145 cells assessed as increase in DNA fragmentation after 48 hrs by ELISA relative to control; format: functional
HT-29 [2] = test: Induction of apoptosis in human HT-29 cells assessed as increase in DNA fragmentation after 48 hrs by ELISA relative to control; format: functional
DU-145 [3] = test: Induction of apoptosis in human DU-145 cells assessed as early apoptotic cells incubated for 48 hrs by annexin-V/FITC and propidium iodide staining based flow cytometry analysis (reference value: 3.27 %); format: functional
HT-29 [4] = test: Induction of apoptosis in human HT-29 cells assessed as decrease in pro-caspase-3 expression by Western blot assay; format: functional, cell-based
HCT-116 [5] = test: Induction of apoptosis in human HCT-116 cells assessed as late apoptotic cells incubated for 48 hrs by annexin-V/FITC and propidium iodide staining based flow cytometry analysis (reference value: 7.22 %); format: functional
HCT-116 [6] = test: Induction of apoptosis in human HCT-116 cells assessed as decrease in pro-caspase-3 expression by Western blot assay; format: functional, cell-based
DU-145 [7] = test: Induction of apoptosis in human DU-145 cells assessed as increase in caspase-3 level by Western blot assay; format: functional, cell-based
HT-29 [8] = test: Induction of apoptosis in human HT-29 cells assessed as viable cells incubated for 48 hrs by annexin-V/FITC and propidium iodide staining based flow cytometry analysis (reference value: 83.56 %); format: functional
PC-3 [9] = test: Induction of apoptosis in human PC-3 cells assessed as viable cells incubated for 48 hrs by annexin-V/FITC and propidium iodide staining based flow cytometry analysis (reference value: 92.95 %); format: functional
HCT-116 [10] = test: Induction of cell cycle arrest in human HCT-116 cells assessed as accumulation at S phase at IC50 incubated for 48 hrs by RNaeA/propidium iodide based flow cytometry analysis (reference value: 30.68 %); format: functional
PC-3 [11] = test: Induction of cell cycle arrest in human PC3 cells assessed as accumulation at sub-G1 phase at IC50 incubated for 48 hrs by RNaeA/propidium iodide based flow cytometry analysis (reference value: 0 %); format: functional
Tubulin (Homo sapiens) = Tubulin (Homo sapiens) (UniProt P68371+Q9H4B7+P0DPH7+P68366+Q13509+Q71U36+P04350+Q3ZCM7+P07437+P68363+Q9BQE3+Q6PEY2+Q13885+Q9BVA1+Q9BUF5); test: Inhibition of tubulin polymerization in human HeLa cells measured after 2 hrs by fluorescent immunostaining method; format: cell-based
DU-145 [12] = test: Induction of cell cycle arrest in human DU-145 cells assessed as effect on Cdc2 expression by Western blot analysis; format: functional, cell-based
HT-29 [13] = test: Induction of cell cycle arrest at G1 phase in human HT-29 cells assessed as reduction in Cyclin D1 expression by Western blot analysis; format: functional, cell-based
DU-145 [14] = test: Induction of apoptosis in human DU-145 cells assessed as decrease in pro-caspase-3 expression by Western blot assay; format: functional, cell-based
HT-29 [15] = test: Induction of cell cycle arrest in human HT-29 cells assessed as accumulation at S phase at IC50 incubated for 48 hrs by RNaeA/propidium iodide based flow cytometry analysis (reference value: 32.45 %); format: functional
HCT-116 [16] = test: Induction of cell cycle arrest in human HCT-116 cells assessed as increase in Cyclin D1 expression by Western blot analysis; format: functional, cell-based
PC-3 [17] = test: Induction of apoptosis in human PC-3 cells assessed as increase in DNA fragmentation after 48 hrs by ELISA relative to control; format: functional
HCT-116 [18] = test: Induction of cell cycle arrest in human HCT-116 cells assessed as accumulation at G1 phase at IC50 incubated for 48 hrs by RNaeA/propidium iodide based flow cytometry analysis (reference value: 51.56 %); format: functional
HCT-116 [19] = test: Induction of apoptosis in human HCT-116 cells assessed as early apoptotic cells incubated for 48 hrs by annexin-V/FITC and propidium iodide staining based flow cytometry analysis (reference value: 5.21 %); format: functional
DU-145 [20] = test: Antiproliferative activity against human DU145 cells assessed as reduction in cell viability incubated for 48 hr by MTT assay; format: functional, cell-based; settings: DU-145, 48 h
HCT-116 [21] = test: Induction of apoptosis in human HCT-116 cells assessed as increase in caspase-3 level by Western blot assay; format: functional, cell-based
HCT-116 [22] = test: Induction of cell cycle arrest in human HCT-116 cells assessed as accumulation at sub-G1 phase at IC50 incubated for 48 hrs by RNaeA/propidium iodide based flow cytometry analysis (reference value: 0.67 %); format: functional
HT-29 [23] = test: Antiproliferative activity against human HT29 cells assessed as reduction in cell viability incubated for 48 hr by MTT assay; format: functional, cell-based; settings: HT-29, 48 h
PC-3 [24] = test: Induction of apoptosis in human PC-3 cells assessed as late apoptotic cells incubated for 48 hrs by annexin-V/FITC and propidium iodide staining based flow cytometry analysis (reference value: 2.13 %); format: functional
PC-3 [25] = test: Induction of cell cycle arrest in human PC3 cells assessed as accumulation at S phase at IC50 incubated for 48 hrs by RNaeA/propidium iodide based flow cytometry analysis (reference value: 33.66 %); format: functional
HCT-116 [26] = test: Induction of apoptosis in human HCT-116 cells assessed as increase in DNA fragmentation after 48 hrs by ELISA relative to control; format: functional
DU-145 [27] = test: Induction of cell cycle arrest in human DU-145 cells assessed as increase in p21 expression by Western blot analysis; format: functional, cell-based
HT-29 [28] = test: Induction of apoptosis in human HT-29 cells assessed as early apoptotic cells incubated for 48 hrs by annexin-V/FITC and propidium iodide staining based flow cytometry analysis (reference value: 3.37%); format: functional
HT-29 [29] = test: Induction of cell cycle arrest in human HT-29 cells assessed as accumulation at G1 phase at IC50 incubated for 48 hrs by RNaeA/propidium iodide based flow cytometry analysis (reference value: 54.39 %); format: functional
PC-3 [30] = test: Induction of cell cycle arrest in human PC3 cells assessed as accumulation at G2 phase at IC50 incubated for 48 hrs by RNaeA/propidium iodide based flow cytometry analysis (reference value: 23.73 %); format: functional
DU-145 [31] = test: Induction of apoptosis in human DU-145 cells assessed as late apoptotic cells incubated for 48 hrs by annexin-V/FITC and propidium iodide staining based flow cytometry analysis (reference value: 2.56 %); format: functional
HT-29 [32] = test: Induction of apoptosis in human HT-29 cells assessed as decrease in PARP protein expression by Western blot assay; format: functional, cell-based
PC-3 [33] = test: Antiproliferative activity against human PC3 cells assessed as reduction in cell viability incubated for 48 hr by MTT assay; format: functional, cell-based; settings: PC-3, 48 h
HCT-116 [34] = test: Antiproliferative activity against human HCT116 cells assessed as reduction in cell viability incubated for 48 hr by MTT assay; format: functional, cell-based; settings: HCT-116, 48 h
HT-29 [35] = test: Induction of cell cycle arrest at G1 phase in human HT-29 cells assessed as reduction in CDK2 expression by Western blot analysis; format: functional, cell-based
HCT-116 [36] = test: Induction of apoptosis in human HCT-116 cells assessed as increase in cleaved PARP protein expression by Western blot assay; format: functional, cell-based
HT-29 [37] = test: Induction of apoptosis in human HT-29 cells assessed as necrotic cells incubated for 48 hrs by annexin-V/FITC and propidium iodide staining based flow cytometry analysis (reference value: 3.52%); format: functional

inhibition (Tubulin (Homo sapiens)): inactive
pIC50 (DU-145 [20]): 5.05
pIC50 (HT-29 [23]): 4.97
pIC50 (PC-3 [33]): 4.86
pIC50 (HCT-116 [34]): 5.09
Compound: COc1cc(C(=O)/C=C/c2ccc(OCCCNCCCNCCCCN)cc2)cc(OC)c1OC
fold change (FC) (DU-145 [1]): 4.88
fold change (FC) (HT-29 [2]): 2.07
Activity (DU-145 [3]): 52.25%
Activity (HT-29 [4]): Active
Activity (HCT-116 [5]): 21.6%
Activity (HCT-116 [6]): Active
Activity (DU-145 [7]): Active
Activity (HT-29 [8]): 56.67%
Activity (PC-3 [9]): 50.47%
Activity (HCT-116 [10]): 14.4%
Activity (PC-3 [11]): 26.99%
Activity (DU-145 [12]): inactive
Activity (HT-29 [13]): Active
Activity (DU-145 [14]): Active
Activity (HT-29 [15]): 26.03%
Activity (HCT-116 [16]): Active
fold change (FC) (PC-3 [17]): 6.53
Activity (HCT-116 [18]): 65.67%
Activity (HCT-116 [19]): 22.92%
Activity (HCT-116 [21]): Active
Activity (HCT-116 [22]): 24.17%
Activity (PC-3 [24]): 12.65%
Activity (PC-3 [25]): 22.17%
fold change (FC) (HCT-116 [26]): 4.72
Activity (DU-145 [27]): Active
Activity (HT-29 [28]): 11.04%
Activity (HT-29 [29]): 60.65%
Activity (PC-3 [30]): 58.17%
Activity (DU-145 [31]): 8.74%
Activity (HT-29 [32]): Active
Activity (HT-29 [35]): Active
Activity (HCT-116 [36]): Active
Activity (HT-29 [37]): 0.6%
